The subject of assay [1] is S. gordonii. The assay is described as follows: Bacterial susceptibility assay (microdilution, planktonic). Format: cell-based, Streptococcus gordonii DL1. As to conditions: Streptococcus gordonii. As for the experimental part: (§1) Streptococcus mutans UA159, Streptococcus gordonii DL1 and Streptococcus sanguinis ATCC10556 were obtained from the State Key Laboratory of Oral Diseases (Sichuan University, Chengdu, China). All strains were routinely cultured in brain heart infusion broth (BHI; Difco, Sparks, MD) under anaerobic conditions (5% CO2) at 37°C. For biofilm formation, bacteria were cultured in BHI broth supplied with 1% sucrose (designated BHIS).
(§2) The minimum inhibitory concentration (MIC) and minimum bactericidal concentration (MBC) of II-6s against S. mutans, S. gordonii, and S. sanguinis were measured by a microdilution method in BHI as described previously. The bacterial inoculum for the experiment was adjusted to 1 × 10^7 colony-forming units (CFU)/ml for S. mutans, S. gordonii, and S. sanguinis based on the optical density at 600 nm (OD600) versus a CFU/ml graph of each bacterium. Bacterial suspension was added to 96-well microtiter plates which were supplemented with serially diluted concentrations of II-6s ranging from 0.98 to 500 μg/ml. Each plate also included CHX ranging from 0.98 to 500 μg/ml as a positive control, test bacteria and BHI broth as a negative control, BHI broth containing equivalent DMSO (0.5% to 0.001%, ν/ν) as a solvent control and a blank control. […] The lowest concentration of the test solutions that allowed no visible growth on a BHI agar plate was taken as MBC. The experiment was performed in triplicates and repeated at least three times.
(Dilution methods test growth across graded concentrations, often in twofold steps.)

Assay [2] concerns S. gordonii biofilm. The assay is described as follows: Biofilm susceptibility assay (crystal violet). Format: cell-based, Streptococcus gordonii DL1. As to conditions: 24 h; for MBIC: S. gordonii biofilm formation, at least 90% inhibition; for MBRC: S. gordonii one-day biofilm, at least 90% reduction. As for the experimental part: (§3) Streptococcus mutans UA159, Streptococcus gordonii DL1 and Streptococcus sanguinis ATCC10556 were obtained from the State Key Laboratory of Oral Diseases (Sichuan University, Chengdu, China). All strains were routinely cultured in brain heart infusion broth (BHI; Difco, Sparks, MD) under anaerobic conditions (5% CO2) at 37°C. For biofilm formation, bacteria were cultured in BHI broth supplied with 1% sucrose (designated BHIS). The effect of II-6s on S. mutans, S. gordonii, and S. sanguinis biofilm was examined by the microdilution method described previously. S. mutans, S. gordonii, and S. sanguinis (1 × 10^7 CFU/ml) respectively, were cultured in BHIS broth and II-6s (0.98 to 500 μg/ml) in 96-well microtiter plates for 24 h. A parallel study was also performed with BHIS as a negative control. After incubation, the culture supernatant and agent were removed, and each well was gently washed three times with phosphate-buffered saline (PBS), then fixed the adherent biofilm was fixed with methanol for 15 min, and stained with 0.1% (wt/vol) crystal violet (Sigma) for 5 min. The excess crystal violet stain in each well was rinsed away with PBS until the blank control wells were colorless. Finally, 200 μl of 95% ethanol was added to each well to dissolve the crystal violet attached to the biofilm. The plate was shaken at room temperature for 30 min, and the absorbance at 595 nm was recorded. To examine the effects of II-6s on mature biofilm, bacterial suspensions were inoculated into a 96-well microtiter plate containing BHIS and incubated at 37°C for 24 h. After biofilm developed, the supernatant from each well was decanted and planktonic cells were removed by washing with sterile PBS. Fresh BHI broth containing II-6s (0.98 to 500 μg/ml) was added to the one-day biofilm, and the plate was further incubated for 24 h. The control wells contained BHIS broth without II-6s. Similarly, the biofilm was fixed, stained, washed, and quantified as described above. […] The experiment was performed in triplicates and repeated at least three times.

The test system of assay [3] is S. mutans biofilm. Kind of assay: Biofilm susceptibility assay (crystal violet). Format: cell-based, Streptococcus mutans UA159. As to conditions: 24 h; for MBIC: S. mutans biofilm formation, at least 90% inhibition; for MBRC: S. mutans one-day biofilm, at least 90% reduction. The method, then:
as §3

Assay [4] concerns 3-species streptococcal biofilms on bovine enamel slabs. The assay is described as follows: Transverse microradiography of biofilm-induced demineralization on bovine enamel slabs. In kind it is cell-based. The conditions noted are these: for biofilm-induced demineralization of enamel slabs (lesion depth, mineral loss): vs PBS control, 5 days, 5 min three times per day. The text has this: The labial dental crown of bovine incisors was cut into 5 mm × 5 mm × 4 mm by a diamond-coated band saw with continuous water cooling (Struers Minitom; Struers, Copenhagen, Denmark). These bovine specimens were embedded in polymethylmethacrylate and labial enamel surfaces were ground flat with water-cooled carborundum discs of waterproof silicon carbide paper (Struers) of various grits (1,000, 1,200, 2,400, 3,000 and 4,000). Then, enamel blocks were painted with two layers of acid-resistant nail varnish, leaving a 4 × 4 mm window exposed on the labial enamel surface. These specimens were measured by the […] hardness test (Zwick, Ulm, Germany) and those in the range from 314.6 to 382.4 Knoop Hardness Numbers were selected for the demineralization assessment. All the polished samples were sonicated in distilled water for 5 min to remove the residual abrasives and sterilized in an ethylene oxide sterilizer (AnproleneAN 74i, Andersen, Haw River, NC, USA).
An amount of 2 ml bacterial suspension solution contained S. mutans, S. gordonii and S. sanguinis (1 × 10^7 CFU/ml for each bacterium) was added to each well of a 12-well plate with a bovine sample, which was cultured anaerobically in a BHIS medium at 37°C (5% CO2) for 24 h. The specimens were treated with PBS, 0.2% of CHX or different concentrations of II-6s (15.63 to 125 μg/ml) for 5 days (5 min, three times per day). The pH of all experimental solutions was adjusted to 7.0 before treatment. All specimens were washed with PBS and refreshed with BHIS after every exposure. After 5 days of incubation, samples were rinsed with distilled water to remove the remaining biofilms, then cut again and polished with waterproof silicon carbide abrasive papers (800–4,000 grit; Struers, Copenhagen, Denmark) to a thickness around 100 μm. […] Quantitative data of mineral loss and lesion depth were acquired by a calibrated analysis system TMR2006 (Inspektor Research Systems BV, Netherlands). […]

In assay [5] the test system is S. sanguinis. Kind of assay: Bacterial susceptibility assay (microdilution, planktonic). Format: cell-based, Streptococcus sanguinis ATCC10556. As to conditions: Streptococcus sanguinis, BHI medium. As for the experimental part:
as §1, §2

For assay [6], the system named is S. mutans. The assay is described as above. In kind it is cell-based, Streptococcus mutans UA159. The conditions noted are these: Streptococcus mutans. The method, then:
as §1, §2

The test system of assay [7] is S. sanguinis biofilm. The assay is described as follows: Biofilm susceptibility assay (crystal violet). Format: cell-based, Streptococcus sanguinis ATCC10556. As to conditions: 24 h; for MBIC: S. sanguinis biofilm formation, at least 90% inhibition; for MBRC: S. sanguinis one-day biofilm, at least 90% reduction. The method, then: as §3
Where [8] appears, read: S. gordonii, planktonic, BHI medium.
[9] abbreviates: S. mutans, planktonic, BHI medium.

From article PMC8018465, “Antimicrobial activities of a small molecule compound II-6s against oral streptococci” (Journal of Oral Microbiology, 2021) come the findings set out here.

Structures are written as SMILES. Values after ≈ are worked out from the molar mass of the structure shown. Like-named read-outs stand apart in the source and are kept apart here.

One may read the MBC as the smallest concentration meeting the test's criterion for killing. Low values mean greater bactericidal potency, high ones weaker bactericidal potency. As a reminder, the MIC is the least concentration at which growth counts as inhibited. As to `[H]/N=C(\N/C(=N/[H])NCCCCCCNC(=N)NC(=N)Nc1ccc(Cl)cc1)Nc1ccc(Cl)cc1` [CHX, Chlorhexidine digluconate, reference compound], the MBC came to 7.81 µg/mL in assay [1] (setting [8]), 3.91 µg/mL in assay [5] and 7.81 µg/mL in assay [6] (setting [9]). Moreover, the MIC in assay [1] (S. gordonii, planktonic, BHI medium, read-out: MIC) came to 3.91 µg/mL; in assay [5], 0.49 µg/mL; in assay [6] (S. mutans, planktonic, BHI medium, read-out: MIC), 1.95 µg/mL. Moreover, the MBIC was 3.91 µg/mL in assay [2], 0.98 µg/mL in assay [3] and 1.95 µg/mL in assay [7]. The figures for the MBRC in assay [2], in assay [3] and in assay [7] were 15.63 µg/mL, 62.50 µg/mL and 3.91 µg/mL, respectively. Moreover, the “biofilm-induced demineralization of enamel slabs (lesion depth, mineral loss)” value in assay [4] is given as “significantly reduced the demineralization”.
As for `CC(C)(Cc1ccc2ccccc2c1)NC[C@H](O)CNc1cc(C(F)(F)F)cc(C(F)(F)F)c1` [II-6s, (S)-1-((3,5-bis(trifluoromethyl)phenyl)amino)-3-((2-methyl-1-(naphthalen-2-yl)propan-2-yl)amino)propan-2-ol], the results for the MIC in assay [1], in assay [5] and in assay [6] were 3.91 µg/mL (≈ 8.07 µM), 1.95 µg/mL (≈ 4.02 µM) and 3.91 µg/mL (≈ 8.07 µM), respectively. The MBC in assay [1] (setting [8]) was determined as 15.6 µg/mL (≈ 32.3 µM); in assay [5] it was 7.81 µg/mL (≈ 16.1 µM); in assay [6] (setting [9]), 15.6 µg/mL (≈ 32.3 µM). The MBIC in assay [2], in assay [3] and in assay [7] was 3.91 µg/mL each time. Besides, the MBRC in assay [2] was found to be 3.91 µg/mL; in assay [3], 62.50 µg/mL; in assay [7], 3.91 µg/mL. Also, the “inhibitory effect on biofilm-induced demineralization” value in assay [4] (II-6s 31.25 to 125 μg/ml, vs 0.2% of CHX) was “equivalent inhibitory effect on the biofilm-induced demineralization as compared to 0.2% of CHX”. In assay [4], the “biofilm-induced demineralization of enamel slabs (lesion depth, mineral loss)” value was “significantly reduced the demineralization”.
